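Briefly, cells in 96-well plates were exposed to five compound concentrations for 48 h, and endpoints were estimated by linear interpolation. Abbreviation: GI50, concentration required for 50% inhibition of growth.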 The source made the active and inactive calls. Cut-off read from the data, not from the text of the source: active = GI50 up to about 1.1 µM and inactive = higher.
Key:
Assay in all cases: inhibition of tumour cell growth, NCI panel, 48 h
[1] = system: SF-268
[2] = system: T47D
[3] = system: HT-29
[4] = system: NCI/ADR-RES
[5] = system: SR
[6] = system: OVCAR-4
[7] = system: NCI-H226
[8] = system: SK-OV-3
[9] = system: RPMI-8226
[10] = system: NCI-H522
[11] = system: LOX IMVI
[12] = system: EKVX
[13] = system: A549
[14] = system: DU-145
[15] = system: Malme-3M
[16] = system: MOLT-4
[17] = system: SW-620
[18] = system: SNB-19
[19] = system: U-251
[20] = system: A498

Measured: GI50

Fc1ccc(C(OCCN2CCN(CCCc3ccccc3)CC2)c2ccc(F)cc2)cc1
inactive: [1] 4.18 µM | [2] 4.9 µM | [3] 3.13 µM | [4] 3.13 µM | [5] 2.71 µM | [6] 4.15 µM | [7] 3.75 µM | [8] 6.04 µM | [9] 2.58 µM | [10] 3.48 µM | [11] 4.65 µM | [12] 4.17 µM | [13] 3.58 µM | [14] 5.97 µM | [15] 5.31 µM | [16] 4.26 µM | [17] 5.47 µM | [18] 3.99 µM | [19] 3.65 µM | [20] 6.97 µM

OCC1COc2cc(Cl)c(Cl)cc2O1 (stereo not given)
inactive: [1] > 10 µM | [2] > 10 µM | [3] > 10 µM | [4] > 10 µM | [5] > 10 µM | [6] > 10 µM | [7] 6.3 µM | [8] > 10 µM | [9] > 10 µM | [10] 1.42 µM | [11] > 10 µM | [12] > 10 µM | [13] > 10 µM | [14] > 10 µM | [15] > 10 µM | [16] > 10 µM | [17] > 10 µM | [18] > 10 µM | [19] > 10 µM | [20] > 10 µM

CCN(CC)CCNC(=O)c1cc2cc(NC(=O)c3cc4cc(NC(=O)c5cc6cc(N)ccc6[nH]5)ccc4[nH]3)ccc2[nH]1
inactive: [1] > 100 µM | [2] > 100 µM | [3] > 100 µM | [4] > 100 µM | [5] > 100 µM | [6] > 100 µM | [7] > 100 µM | [8] > 100 µM | [9] > 100 µM | [10] > 100 µM | [11] > 100 µM | [12] > 100 µM | [13] > 100 µM | [14] > 100 µM | [15] > 100 µM | [16] > 100 µM | [17] > 100 µM | [18] > 100 µM | [19] > 100 µM | [20] > 100 µM
